Results on one compound are retold here after article PMC6688371, “Effect of the inhaled PDE4 inhibitor CHF6001 on biomarkers of inflammation in COPD” (Respiratory Research, 2019).

The assay deals with TNFα. Nature of the assay: Ex-vivo lipopolysaccharide (LPS) stimulated TNFα in whole blood. The following applies: Day 32, geometric mean (%CV). Also noted: species or system human. From the text: A patient had to have a minimum of one acceptable sputum sample on Day 20, 26 or 32 to be included in the sputum biomarker evaluation for that treatment period, with the available cell count and biomarker data averaged for each patient. The mean change from baseline (pre-dose on Day 1 of each treatment period) was then compared between treatments using an analysis of covariance (ANCOVA) that included treatment, patient and period as fixed effects, and baseline values as covariate. The mean change from baseline to Day 32 for biomarkers in blood were analysed using the same model as for sputum data. All data were log-transformed before analysis, and the results are presented as ratio of geometric means. […]
Approximately 80 to 100 cells were to be counted per square , with the number of live leukocytes, dead leukocytes and squamous cells counted. […]
Only one of the sputum samples induced at 2 h post-dose on Days 20, 26 or 32 was used to evaluate CHF6001 concentration, with the evaluation performed only if a minimum of 300 mg of residual sputum remained. […] The concentration of CHF6001 was evaluated using a LC-MS/MS method following solid phase extraction. […]
The levels of inflammatory biomarkers were evaluated from blood collected at 2 h post-dose […]
Levels of biomarkers were assessed as follows: […]
• Serum SP-D: Sandwich Immunoassay, using PheraSTAR Plate Reader . […]

As for `CS(=O)(=O)Nc1ccc(C(=O)O[C@@H](Cc2c(Cl)c[n+]([O-])cc2Cl)c2ccc(OC(F)F)c(OCC3CC3)c2)cc1OCC1CC1` [CHF6001], the “Tumour necrosis factor α ex-vivo, post-baseline” value reads like this: (800 µg BID) 2096.916 (177.0) pg/mL; (1600 µg BID) 1750.418 (192.0) pg/mL.
